According to patent US6051683A, “Immune regulating peptides and method of obtaining them” (Immunotech Developments Inc., priority 1995, dated 2000):
Peptide text beside a SMILES is read from it.

Legend:
[1] = tested on: lymphocytes of the guinea pigs; assay: E-yield (E-POK) of guinea pig lymphocytes after processing with trypsin; assay type: cell-based; conditions: untreated animals 66.5, treated with trypsin 36.1
Method: Biological activity of the new peptide was studied on guinea pigs using recognised testing methods of E-yield of lymphocytes of the guinea pigs subsequent to processing with trypsin.
*Each concentration was tested on 5 animals. The positive growth differs
in relation to the control group EPOK is 50% or higher.

[2] = Solubility of the peptide; assay type: physicochemical
Source text: The peptide obtained by the above formula has the texture of a white powder, which is soluble in water, not completely soluble in alcohol and non soluble on chloroform.
Solubility--Soluble in water, non soluble in chloroform.

Solubility in chloroform ([2]; chloroform): non soluble
Solubility in water ([2]; water): Soluble
SMILES: CC[C@H](C)[C@H](N)C(=O)N[C@@H](CCC(=O)O)C(=O)N[C@@H](Cc1c[nH]c2ccccc12)C(=O)O [Ile-Glu-Trp, H-Ile-Glu-Trp-OH] (H-Ile-Glu-Trp-OH)
QUANTITY E-POK, (%) after treatment with trypsin and compound ([1]; compound concentration 10^-6 mg/ml): 61.4%
QUANTITY E-POK, (%) after treatment with trypsin and compound ([1]; compound concentration 10^-7 mg/ml): 63.9%
QUANTITY E-POK, (%) after treatment with trypsin and compound ([1]; compound concentration 10^-8 mg/ml): 64.8%
QUANTITY E-POK, (%) after treatment with trypsin and compound ([1]; compound concentration 10^-9 mg/ml): 60.2%
QUANTITY E-POK, (%) after treatment with trypsin and compound ([1]; compound concentration 10^-10 mg/ml): 37.5%
QUANTITY E-POK, (%) after treatment with trypsin and compound ([1]; compound concentration 10^-11 mg/ml): 40.0%
QUANTITY E-POK, (%) after treatment with trypsin and compound ([1]; compound concentration 10^-12 mg/ml): 34.3%
